22 compounds from ChEMBL document CHEMBL1138616, “Molecular design, synthesis and docking study of benz[b]oxepines and 12-oxobenzo[c]phenanthridinones as topoisomerase 1 inhibitors” (Bioorg Med Chem Lett, 2009) can be followed below.

For orientation: IC50 means the midpoint of a concentration-inhibition curve. A higher IC50 goes with weaker potency in that assay. What is called inhibition is the change of the read-out against control, counted positive when it falls.

Assay [1] concerns A549. Put plainly: Cytotoxicity against human A549 cells by sulforhodamine B assay. It counts as functional, cell-based. In general terms: In SRB staining, fixed cells bind dye roughly in proportion to their protein.
The subject of assay [2] is HL-60. Put plainly: Cytotoxicity against human HL60 cells by sulforhodamine B assay. It counts as functional, cell-based.
Assay [3] deals with HeLa. Put plainly: Cytotoxicity against human HeLa cells by sulforhodamine B assay. It counts as functional, cell-based.
Assay [4] has as its target T1, DNA topoisomerase 1 (Homo sapiens) (UniProt P11387).
T1 sequence (whole entry): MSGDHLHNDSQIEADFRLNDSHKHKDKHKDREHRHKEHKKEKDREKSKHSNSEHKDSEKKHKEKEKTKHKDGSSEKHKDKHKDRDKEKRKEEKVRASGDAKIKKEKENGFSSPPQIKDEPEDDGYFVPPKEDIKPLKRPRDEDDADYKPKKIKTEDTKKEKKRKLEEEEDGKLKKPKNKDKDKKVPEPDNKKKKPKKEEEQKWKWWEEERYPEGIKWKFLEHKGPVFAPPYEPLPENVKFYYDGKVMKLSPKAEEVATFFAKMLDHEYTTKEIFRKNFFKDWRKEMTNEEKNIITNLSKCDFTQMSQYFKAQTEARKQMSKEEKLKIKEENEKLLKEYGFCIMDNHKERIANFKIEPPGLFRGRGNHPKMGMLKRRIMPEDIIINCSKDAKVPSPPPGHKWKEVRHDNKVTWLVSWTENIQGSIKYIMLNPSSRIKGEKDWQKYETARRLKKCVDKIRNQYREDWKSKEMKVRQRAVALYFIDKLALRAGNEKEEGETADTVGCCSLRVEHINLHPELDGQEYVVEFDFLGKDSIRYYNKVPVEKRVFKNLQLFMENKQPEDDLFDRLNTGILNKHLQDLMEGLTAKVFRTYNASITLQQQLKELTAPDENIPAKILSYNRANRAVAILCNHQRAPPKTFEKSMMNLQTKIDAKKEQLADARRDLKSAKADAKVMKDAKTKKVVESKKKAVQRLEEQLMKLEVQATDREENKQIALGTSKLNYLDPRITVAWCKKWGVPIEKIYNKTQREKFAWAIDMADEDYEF
Put plainly: Inhibition of DNA topoisomerase 1 assessed as relaxation of supercoiled Escherichia coli pBR322 DNA at 100 uM.

Active and inactive are the calls of the source. The rule behind the calls is not given here.

`COc1ccc(Cn2c3c(c4ccccc4c2=O)CCOc2ccccc2-3)cc1`: the IC50 turned out to be 11 µM in assay [1], 4.49 µM in assay [2] and 4.78 µM in assay [3]. The inhibition in assay [4] was determined as 94.5%.

`C=COc1ccccc1-c1c(Br)c2ccccc2c(=O)n1Cc1ccc(OC)cc1`: the results for the IC50 in assay [1], in assay [2] and in assay [3] were over 100 µM, 59.5 µM and 36.5 µM, respectively. In assay [4], the inhibition result was “inactive”.

Regarding `COc1ccc(Cn2c(-c3ccccc3O)c(Br)c3cc(C)ccc3c2=O)cc1`, the IC50 in assay [1] stood at 53 µM; in assay [2], 24.4 µM; in assay [3], 20.4 µM. In addition, in assay [4], the inhibition result is “inactive”.

As for `COCOc1ccccc1-c1cc2cc(C)ccc2c(=O)[nH]1`, the IC50 in assay [1] is over 100 µM; in assay [2], 0.16 µM; in assay [3], 0.17 µM. Also, the inhibition entry in assay [4] is “inactive”.

In the case of `COCOc1ccccc1-c1c(Br)c2cc(OC)c(OC)cc2c(=O)n1C`, the values for the IC50 in assay [1], in assay [2] and in assay [3] were over 100 µM, 37.8 µM and 99.3 µM, respectively. In addition, the inhibition in assay [4] came to 40.7%.

For `CC1Oc2ccccc2-c2c1c1ccccc1c(=O)n2C` (stereo unspecified), the concentration for half-maximal inhibition (IC50) in assay [1] stood at 65.5 µM; in assay [2], 30.1 µM; in assay [3] it was 40.1 µM. Moreover, the inhibition entry in assay [4] is “inactive”.

In the case of `COCOc1ccccc1-c1cc2ccccc2c(=O)n1C`, the 50% inhibitory concentration (IC50) is over 100 µM in assay [1], 59.5 µM in assay [2] and 64.6 µM in assay [3]. Further, the inhibition entry in assay [4] is “inactive”.

Turning to `Cc1ccc2c3c(n(C)c(=O)c2c1)-c1ccccc1OC3C` (stereo unspecified), the IC50 was determined as 66.9 µM in assay [1] and 21.9 µM in assay [3]. For the same compound, the inhibition entry in assay [4] is “inactive”.

In the case of `COCOc1ccccc1-c1cc2cc(C)ccc2c(=O)n1C`, the IC50 in assay [1] came to 99.8 µM; in assay [2], 14.3 µM; in assay [3], 28.6 µM. In addition, the inhibition entry in assay [4] is “inactive”.

On to `Cn1c2c(c3ccccc3c1=O)CCOc1ccccc1-2`, for which the figures for the IC50 in assay [1], in assay [2] and in assay [3] were 66.8 µM, 37.6 µM and 19.7 µM, respectively. Further, the inhibition result in assay [4] was “inactive”.

In the case of `CC[C@@]1(O)C(=O)OCc2c1cc1n(c2=O)Cc2cc3ccccc3nc2-1` [CAMPTOTHECIN], the IC50 turned out to be 0.058 µM in assay [1], 0.089 µM in assay [2] and 0.072 µM in assay [3].

Turning to `Cc1ccc2c3c(n(C)c(=O)c2c1)-c1ccccc1OCC3`, the IC50 in assay [1] is 30.3 µM; in assay [2], 14.1 µM; in assay [3], 8.76 µM. Further, in assay [4], the inhibition turned out to be 11.9%.

With `COc1ccc(Cn2c3c(c4ccc(C)cc4c2=O)CCOc2ccccc2-3)cc1`, the half-maximal inhibitory concentration (IC50) in assay [1] was 4.56 µM; in assay [2] it was 4.4 µM; in assay [3], 4.54 µM. In addition, the inhibition entry in assay [4] is “inactive”.

As to `Cc1ccc2c(=O)n(C)c3c(c2c1)C(C)Oc1ccccc1-3` (stereo unspecified), the figures for the IC50 in assay [1], in assay [2] and in assay [3] were 46 µM, 29.1 µM and 28.3 µM, respectively. Besides, in assay [4], the inhibition came to 30.4%.

In the case of `COCOc1ccccc1-c1cc2ccccc2c(=O)[nH]1`, the IC50 was determined as 23.6 µM in assay [1], 0.62 µM in assay [2] and 0.62 µM in assay [3]. Further, the inhibition result in assay [4] was “inactive”.

As to `COc1cc2c3c(n(C)c(=O)c2cc1OC)-c1ccccc1OC3C` (stereo unspecified), the IC50 in assay [1] worked out at 13.8 µM; in assay [2] it was 8.54 µM; in assay [3], 9.02 µM. The inhibition in assay [4] is 5.3%.

As to `COc1ccc(Cn2c(-c3ccccc3O)c(Br)c3ccccc3c2=O)cc1`, the IC50 in assay [1] stood at 71.2 µM; in assay [2], 31.6 µM; in assay [3], 36.8 µM. In assay [4], the inhibition result was “inactive”.

As to `COc1ccc(Cn2c3c(c4cc(C)ccc4c2=O)CCOc2ccccc2-3)cc1`, the IC50 is over 100 µM in assay [1], 9.26 µM in assay [2] and 10.3 µM in assay [3]. For the same compound, the inhibition entry in assay [4] was “inactive”.

On to `Cc1ccc2c(=O)n(C)c3c(c2c1)CCOc1ccccc1-3`, for which the IC50 stood at 61.3 µM in assay [1], 33.6 µM in assay [2] and 41.6 µM in assay [3]. The inhibition entry in assay [4] is “inactive”.

In the case of `COCOc1ccccc1-c1c(Br)c2ccc(C)cc2c(=O)n1C`, the half-inhibitory concentration (IC50) in assay [1] was 82 µM; in assay [2], 17.2 µM; in assay [3], 17.8 µM. The inhibition entry in assay [4] is “inactive”.

For the compound `C=COc1ccccc1-c1c(Br)c2cc(C)ccc2c(=O)n1Cc1ccc(OC)cc1`, the IC50 came to 67.8 µM in assay [1], 29.2 µM in assay [2] and 14.8 µM in assay [3]. The inhibition result in assay [4] was “inactive”.

For `COc1cc2c3c(n(C)c(=O)c2cc1OC)-c1ccccc1OCC3`, the IC50 in assay [1] amounted to 73 µM; in assay [2], 34.8 µM; in assay [3], 38.1 µM. For the same compound, the inhibition in assay [4] was found to be 98.2%.
